Source: the NIST ThermoML archive (doi:10.1016/j.jct.2015.05.028)

Assay: mn = molality of the nth substance listed, in mol/kg
Conditions: 99.6 kPa, Liquid, Vibrating tube method

CCN1C(=O)N(CC)C2NC(=O)NC21 (stereo not given) + O
mass density [kg/m3]
Conditions	278.15 K	288.15 K	298.15 K	308.15 K	318.15 K
m1 = 0.01158	1000.48	999.594	997.533	994.508	990.681
m1 = 0.01315	1000.54	999.667	997.589	994.565	990.747
m1 = 0.01794	1000.76	999.871	997.801	994.774	990.935
m1 = 0.02385	1001.02	1000.12	998.052	995.029	991.185
m1 = 0.02832	1001.21	1000.32	998.231	995.196	991.363
m1 = 0.03477	1001.5	1000.6	998.521	995.477	991.629
m1 = 0.04062	1001.76	1000.85	998.752	995.71	991.866
m1 = 0.04476	1001.95	1001.03	998.934	995.885	992.035
m1 = 0.04841	1002.11	1001.18	999.081	996.03	992.176
m1 = 0.0537	1002.35	1001.42	999.318	996.256	992.398
m1 = 0.05905	1002.58	1001.63	999.528	996.468	992.605
m1 = 0.06432	1002.81	1001.87	999.742	996.678	992.818
m1 = 0.06647	1002.9	1001.96	999.836	996.759	992.893
m1 = 0.06907	1003.01	1002.07	999.94	996.876	993.011
